# Experimental data: patent publication EP0491041A1, “ANTIVIRAL DRUG” (NIPPON SHINYAKU COMPANY, LIMITED, priority 1989, dated 1991)
# Tested on: not listed separately
# Assay: Acute toxicity test in mice
# Format: in vivo
# Settings: Intraperitoneal Administration; male mice, ddY strain; observation for one week
# Method: Four male mice (ddY strain; six weeks age) were used for each drug tested.
# In the intraperitoneal administration, each drug was suspended in 0.5% CMC-physiological saline solution and 0.1 ml (per 10 g body weight of mouse) of the suspension was intraperitoneally given to mouse. In the case of oral administration, each drug was suspended in 0.5% CMC-physiological saline solution and 0.2 ml (per 10 g body weight of mouse) of the suspension was given orally. Observation was started soon after administration and, after observation for one week, the mice were killed by chloroform and subjected to autopsied. LD₅₀ of each drug tested was given in the following tables wherefrom it is clear that the compounds of the present invention are safe.
row,SMILES,L D ₅₀ [mg/kg]
1,"CC(=CCN1C[C@H](O)[C@@H](O)[C@H](O)[C@H]1CO)c1ccc(C)cc1 [Compound No. 104, N-(gamma-Methyl-4-methylcinnamyl)moranoline]",> 300
2,"CC(=CCCN1C[C@H](O)[C@@H](O)[C@H](O)[C@H]1CO)c1ccc(Oc2ccccc2)cc1 [Compound No. 115, N-[4-(4-Phenoxyphenyl)-3-pentenyl]moranoline]",> 300
3,"OC[C@@H]1[C@@H](O)[C@H](O)[C@@H](O)CN1CCCCOc1ccc(Cl)cc1 [Compound No. 141, N-[4-(4-Chlorophenoxy)butyl]moranoline]",> 300

# Same assay, conditions: Oral Administration; male mice, ddY strain; observation for one week
row,SMILES,L D ₅₀
1,"CC(=CCN1C[C@H](O)[C@@H](O)[C@H](O)[C@H]1CO)c1ccc(C)cc1 [Compound No. 104, N-(gamma-Methyl-4-methylcinnamyl)moranoline]","> 5,000 mg/kg"
2,"CC(=CCCN1C[C@H](O)[C@@H](O)[C@H](O)[C@H]1CO)c1ccc(Oc2ccccc2)cc1 [Compound No. 115, N-[4-(4-Phenoxyphenyl)-3-pentenyl]moranoline]","> 5,000 mg/kg"
3,"OC[C@@H]1[C@@H](O)[C@H](O)[C@@H](O)CN1CCCCOc1ccc(Cl)cc1 [Compound No. 141, N-[4-(4-Chlorophenoxy)butyl]moranoline]","> 5,000 mg/kg"

# Tested on: virus
# Assay: Antiviral action test: screening by inhibition of cell degeneration effect (CPE) in virus-infected HeLa cells
# Format: cell-based
# Settings: amount of added drug whereby the CPE became 50%, M.O.I = 0.002, culture for three days
# Method: HeLa cells were subjected to subcultured by monolayer culture (Eagle's MEM-10% CS) and infected as M.O.I. (multiplicity of infection) = 0.01.
# On the first day, HeLa cells were spread in a 75 cm³ flask and cultured on a one-day growth medium (Eagle's MEM-10% CS). On the second day, old medium was removed after confirming the formation of cell sheet, then M.O.I was made 0.01 PFU/cell and 0.5 ml of virus solution was added. The original virus solution was diluted with PBS-3% FCS solution. Operation of the virus inoculation was conducted by tilting for 1 hour at room temperature. After virus was inoculated on the cells, the virus-inoculated solution was removed, washed twice with 10 ml PBS and the residual virus solution was removed. Then 15 ml of maintenance medium (Eagle's MEM-1% CS) was added and cultured at 37°C for 2 days. The cells were observed from time to time and the culture was continued until cell fusion and cell rounding were confirmed. After the culture, medium was recovered which was used as a virus solution and was stored at -20°C until actual use.
# The 78 cm³ flask containing HeLa cells which were subjected to a monolayer maintenance subculture was taken out, the old medium was discarded, 2-3 ml of 0.25% trypsine (Difco = 1:250)-0.02% EDTA/PBS(-) solution was added, tilted for a few seconds, the trypsine solution was removed and warmed at 37°C for 5 minutes. Then fresh medium was added, pipetted with a Komagome pipette and the cells were homogeneously dispersed.
# Cells were counted using a cytometer, then fresh medium was added, diluted to make the cell concentration 5 x 10⁵ cells/ml, 2 ml of that was added to a laboratory dish of 35 mm diameter and cultured in a CO₂-incubator at 37°C for one day to prepare cell sheet.
# The virus solution was diluted by a diluting solution to make diluted solutions of ten-times difference or step. The laboratory dish wherein HeLa cells were cultured on the previous day was taken out from the incubator, old medium was discarded and the cells were washed with each 2 ml of PBS twice. Properly diluted virus solution (0.2 ml) was added to each laboratory dish, subjected to a tilting at room temperature for 60 minutes immediately and virus was inoculated. Then the virus solution was removed, each 2 ml of 0.5% methylcellulose/Eagle's MEM-1% CS was added and cultured in a CO₂ incubator for 4 days.
# The cultured laboratory dish was taken out from the CO₂-incubator and methylcellulose medium was removed. Then cells were washed with 2 ml of PDS, 2 ml of methanol was added, allowed to stand for 10 minutes and cells were immobilized and, at the same time, virus was sterilized. Hematoxylin dyeing solution (2 ml) was added to the laboratory dish which was immobilized with methanol, allowed to stand for about 10 minutes, washed with water and air-dried at room temperature. Since the cells destructed with virus were not dyed, plaque area was noted as a void and the plaque numbers were counted whereby virus value (PFU/ml) (Plaque forming units/ml) was measured.
# HeLa cells during the subculture were dispersed with trypsine liquid-EDTA solution, 5 x 10⁵ cells/pore were embedded on a plate having 24 pores and cultured overnight at 37°C in a CO₂-incubator to prepare cell sheet.
# As mentioned above, old medium was discarded, the cells were washed with PBS, the virus solution was diluted to make M.O.I = 0.002, 0.1 ml of it was added to each pore, subjected to a tilting at room temperature for 60 minutes and virus was inoculated to the cell.
# Virus solution was removed from the cells after inoculation of virus, the cells were washed with 2 ml of PBS, each 1 ml of maintenance medium was added to each pore, then each 10 µl of the drug was added and the cells were cultured in a CO₂-incubator. Culture was conducted for three days.
# The cells on the plate were observed under an invert microscope. Cell degeneration effect (CPE) was observed as cell fusion and making the cells round. […]
row,SMILES,EC50 (50% CPE inhibition) [µg/mL]
1,"CC(=CCN1C[C@H](O)[C@@H](O)[C@H](O)[C@H]1CO)c1ccc(C)cc1 [Compound No. 104, N-(gamma-Methyl-4-methylcinnamyl)moranoline]",10
2,"CC(=CCCN1C[C@H](O)[C@@H](O)[C@H](O)[C@H]1CO)c1ccc(Oc2ccccc2)cc1 [Compound No. 115, N-[4-(4-Phenoxyphenyl)-3-pentenyl]moranoline]",1
3,"OC[C@@H]1[C@@H](O)[C@H](O)[C@@H](O)CN1CCCCOc1ccc(Cl)cc1 [Compound No. 141, N-[4-(4-Chlorophenoxy)butyl]moranoline]",1
